Source: patent publication US9220758B2, “Calcitonin products and therapies for treating inflammatory or degenerative diseases” (UGP Therapeutics, Inc., priority 2010, dated 2015)

Columns and labels:
Assay type in all cases: cell-based
[1] = test system: bovine articular cartilage explants; assay: PGE2 release from cytokine-stimulated bovine cartilage explants (ELISA); conditions: for highest ineffective concentration, PGE2 release: TNFa/IL-1a/OSM 10 ng/ml each, 3 week culture; for normalized PGE2 release: stimulated control = 100%
Procedure: (§1) Full thickness cartilage was obtained from the metacarpophalangeal joints of approximately 6 months old calves (from a local slaughterhouse). Cartilage punches (4 mm) were taken from the cartilage and placed in culture dishes with culture medium (DMEM+FCS, penicillin, streptomycin and ascorbic acid). Cartilage explants were weighed and explants between about 5 and about 15 mg were divided into a 96-well culture plate with 1 explant per well and 200 μL culture medium. Cartilage degradation was induced by addition of TNFα, IL-1α, and OSM at 10 ng/mL each to the culture medium. Test agents were then added at different concentrations. During three weeks of culture, the culture medium and the test compounds were refreshed once weekly. In addition fresh calcitonin was added twice weekly to the cartilage explants. Culture medium and cartilage explants were stored at −20° C. until analysis. Each culture condition was cultured in four-fold and the entire experiment was performed on cartilage from three different paws. The different culture conditions are listed below in Table 1.
(§2) Outcome parameters included (i) CTX-II in the culture medium as a measure of collagen degradation, (ii) GAG in the culture medium and cartilage explant as a measure of proteoglycan degradation, (iii) prostaglandin E2 (PGE2) measured by ELISA in the culture medium as a measure of inflammation, and (iv) general MMP activity in the culture medium. Not all outcome parameters were determined for each of the culture conditions.
The prostaglandin E2 release was measured as PGE2 release per mg cartilage. PGE2 was determined in the pooled medium using a PGE2 ELISA from R&D Systems. This value was normalized against the control condition of each donor to correct for donor variation. The basal release of unstimulated cartilage is 11% (p<0.0 1) when the stimulated (IL-1a, TNFα and OSM) control is set to 100%.
as §1, with “the culture medium to induce cartilage degradation. Test agents” for “the culture medium. Test agents”, “in Table 3.” for “in Table 1.”

[2] = test system: bovine articular cartilage explants; assay: Proteoglycan (GAG) release from cytokine-stimulated bovine cartilage explants (Blyscan assay); conditions: for effect on proteoglycan release (in words): Example 1, concentrations of Table 1; for highest ineffective concentration, Proteoglycan release: TNFa/IL-1a/OSM 10 ng/ml each, 3 week culture; for normalized GAG (proteoglycan) release: stimulated control = 100%
Procedure: as §1, §2
The proteoglycan release is measured as GAG release per mg cartilage. Proteoglycan (GAG) content was determined in the pooled medium and explants using the Blyscan® colorimetric assay (Biocolor, Belfast, UK). This value is normalized against the control condition of each donor to correct for donor variation. The basal release of unstimulated cartilage is 36% (p<0.05) when the stimulated (IL-1a, TNFα and OSM) control is set to 100%.
as §1, with “the culture medium to induce cartilage degradation. Test agents” for “the culture medium. Test agents”, “in Table 3.” for “in Table 1.”

[3] = test system: bovine articular cartilage explants; assay: Collagen (CTX-II) release from cytokine-stimulated bovine cartilage explants (CTX-II ELISA); conditions: for effect on collagen release (in words): Example 1, concentrations of Table 1; for highest ineffective concentration, Collagen Release: TNFa/IL-1a/OSM 10 ng/ml each, 3 week culture; for CTX-II release: stimulated control 135
Procedure: as §1, §2
Collagen release was measured as CTX-II release per mg cartilage. Collagen was measured in the pooled medium using the CTXII ELISA assay (Pre-clinical Cartilaps®, Nordic Bioscience).
as §1, with “the culture medium to induce cartilage degradation. Test agents” for “the culture medium. Test agents”, “in Table 3.” for “in Table 1.”

[4] = test system: bovine articular cartilage explants; assay: General MMP activity in culture medium of cytokine-stimulated bovine cartilage explants (fluorogenic substrate); conditions: stimulated control 23
Procedure: as §2
The MMP activity was measured as MMP activity per mg cartilage.
as §1, with “the culture medium to induce cartilage degradation. Test agents” for “the culture medium. Test agents”, “in Table 3.” for “in Table 1.”

CNC(=O)[C@H](Cc1c[nH]c2ccccc12)NC(=O)[C@@H](CC(=O)NO)CC(C)C [Galardin]
highest ineffective concentration, PGE2 release [1]: >10 µM | effect on proteoglycan release (in words) [2]: slightly inhibited | highest ineffective concentration, Proteoglycan release [2]: 1 to 10 µM | normalized GAG (proteoglycan) release ([2]; compound alone at 10 μM): 72% | effect on collagen release (in words) [3]: inhibited | highest ineffective concentration, Collagen Release [3]: <0.1 µM

C[C@H]1c2cccc(O)c2C(=O)C2=C(O)[C@]3(O)C(=O)C(C(N)=O)=C(O)[C@@H](N(C)C)[C@@H]3[C@@H](O)[C@@H]21 [Doxycycline]
highest ineffective concentration, PGE2 release [1]: 1 to 10 µM | normalized PGE2 release ([1]; compound alone at 10 μM): 111% | highest ineffective concentration, Proteoglycan release [2]: >100 µM | normalized GAG (proteoglycan) release ([2]; compound alone at 100 μM): 80% | MMP activity ([4]; compound alone at 10 μM): 14 RFU/sec per mg cartilage | highest ineffective concentration, Collagen Release [3]: 10 to 100 µM | CTX-II release ([3]; compound alone at 10 μM): 125 ng/mg cartilage

C[C@@H]1C[C@H]2[C@@H]3CCC4=CC(=O)C=C[C@]4(C)[C@@]3(F)[C@@H](O)C[C@]2(C)[C@@]1(O)C(=O)CO [Dexamethasone]
highest ineffective concentration, PGE2 release [1]: <0.01 µM | highest ineffective concentration, Proteoglycan release [2]: <0.01 µM | highest ineffective concentration, Collagen Release [3]: <0.01 µM

CNC(=O)[C@H](Cc1ccccc1)NC(=O)[C@H](CC(C)C)[C@H](CSc1cccs1)C(=O)NO [BB-94]
normalized GAG (proteoglycan) release ([2]; compound alone at 10 nM): 83% | normalized GAG (proteoglycan) release ([2]; compound alone at 100 nM): 80% | MMP activity ([4]; compound alone at 10 nM): 13 RFU/sec per mg cartilage | MMP activity ([4]; compound alone at 100 nM): 4 RFU/sec per mg cartilage | CTX-II release ([3]; compound alone at 10 nM): 137 ng/mg cartilage | CTX-II release ([3]; compound alone at 100 nM): 27 ng/mg cartilage

Calcitonin
highest ineffective concentration, PGE2 release [1]: >0.01 µM | normalized PGE2 release ([1]; compound alone at 10 nM): 117% | highest ineffective concentration, Proteoglycan release [2]: >0.01 µM | normalized GAG (proteoglycan) release ([2]; compound alone at 10 nM): 87% | MMP activity ([4]; compound alone at 10 nM): 15 RFU/sec per mg cartilage | highest ineffective concentration, Collagen Release [3]: 0.0003 to 0.001 µM | CTX-II release ([3]; compound alone at 0.5 nM): 133 ng/mg cartilage

Cc1ccc(-c2cc(C(F)(F)F)nn2-c2ccc(S(N)(=O)=O)cc2)cc1 [Celebrex ® (celecoxib), celecoxib]
highest ineffective concentration, PGE2 release [1]: <0.01 µM | highest ineffective concentration, Proteoglycan release [2]: 0.1 to 1 µM | highest ineffective concentration, Collagen Release [3]: >10 µM

anakinra [Kineret ® (anakinra)]
effect on PGE2 release (in words) ([1]; Example 1, concentrations of Table 1): inhibited all outcome parameters | highest ineffective concentration, PGE2 release [1]: <0.1 µg/mL | effect on proteoglycan release (in words) [2]: inhibited all outcome parameters | highest ineffective concentration, Proteoglycan release [2]: <0.1 µg/mL | effect on collagen release (in words) [3]: inhibited all outcome parameters
